Experimental data as given in patent US20220135622A1, “ANTIBACTERIAL PEPTIDES AND METHODS OF USE” (priority 2019, published 2022).
In brackets after ≈: the same amount, converted by molar mass. Where two headings read alike, the source gives them in different places. Square brackets hold non-standard residues; d marks the D form. Peptide text beside a SMILES is read from it. Bip = N[C@@H](Cc1ccc(-c2ccccc2)cc1)C(=O)O; hPhe = N[C@@H](CCc1ccccc1)C(=O)O; hSer = N[C@@H](CCO)C(=O)O; NMeA = CN[C@@H](C)C(=O)O; Nle = CCCC[C@H](N)C(=O)O; Dap = NC[C@H](N)C(=O)O; Aib = CC(C)(N)C(=O)O

Experiments:
E. coli imp4213 = experiment: MIC assay, E. coli imp4213; type: cell-based, Escherichia coli; details: Table 7
Description: (§1) Bacterial growth conditions. LB or Mueller Hinton II cation-adjusted broth (MHB II, BBL 212322) was prepared according to manufacturer's instructions and supplemented with arabinose at 0.02% for overnight growth or at indicated concentrations in the description of the figures. Bacterial cultures were grown at 37° C. When appropriate, media was supplemented with kanamycin (50 μg/mL), carbenicillin (50 μg/mL), chloramphenicol (12.5 or 25 μg/mL), hygromycin (200 μg/mL), and/or gentamicin (10 μg/mL).
(§2) Peptide sensitivity and MIC assays. Lyophilized peptides (Smartox Biotechnology, CPC Scientific. ABclonal) were solubilized to 10 mM in Tris buffer, pH 8, prior to making a 2-fold dilution series in MHBII cation adjusted broth with highest final assay concentration of 400-800 μM. Bacteria were grown to log phase and added to final OD600˜0.001. The final EDTA concentration was 0.5 mM for E. coli strains and 0.125 mM for USA300. The final volume of 10 μL/well in a 384 well black, clear bottom plate (Corning) was spun <1 min at <250×g and then incubated at 37° C. After 4 h, an equal volume (10 μL) of BacTiter-Glo™ (Promega) was added to each well and luminescence was read after 5 min on an EnVision plate reader (PerkinElmer). To measure the minimal inhibitory concentrations (MICs), bacteria from fresh overnight plates or log phase cultures were diluted with or without EDTA and peptides as described above to final OD600˜0.0002. Plates were incubated at 37° C. for 20 h before measuring OD600 with an EnVision plate reader.

E. coli ΔwaaD MCR-1 = experiment: MIC assay, E. coli ΔwaaD MCR-1; type: cell-based, Escherichia coli; details: Table 7
Description: as §1, §2

K. pneumoniae = type: cell-based, Klebsiella pneumoniae
Description: as §1, §2

A. baumannii = type: cell-based, Acinetobacter baumannii
Description: as §1, §2

P. aeruginosa = type: cell-based, Pseudomonas aeruginosa
Description: as §1, §2

E. coli BW25113 = type: cell-based, Escherichia coli
Summary of the method: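 Growth inhibition: log-phase cells (OD600 ~0.001), peptides in 2-fold series up to 400–800 μM in MHB II, EDTA 0.5 mM (E. coli) or 0.125 mM (USA300), 4 h at 37 °C, ATP luminescence readout. MICs: inoculum at OD600 ~0.0002, with or without EDTA, 20 h at 37 °C, OD600 endpoint.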

E. coli ΔwaaD + vect. = experiment: MIC assay, E. coli ΔwaaD + vect.; type: cell-based, Escherichia coli; details: Table 7
Description: as §1, §2

Molecule	MIC E. coli imp4213 (E. coli imp4213) [µM]	MIC E coli ΔwaaD − MCR1 (E. coli ΔwaaD MCR-1) [µM]	MIC K. pneumoniae (K. pneumoniae; Table 8)	MIC A. baumannii (A. baumannii; Table 8) [µM]	MIC R. aeruginosa (P. aeruginosa; Table 8) [µM]	MIC E. coli BW25113 (E. coli BW25113; Table 8)	MIC E. coli ΔwaaD + vect. (E. coli ΔwaaD + vect.) [µM]	MIC K. pneumoniae (K. pneumoniae) [µM]	MIC A. baumannii (A. baumannii) [µM]	MIC R. aeruginosa (P. aeruginosa) [µM]	MIC E. coli BW25113 (E. coli BW25113; BW25113) [µM]
CSCC[C@H](NC(=O)[C@@H]1CCCN1C(=O)[C@H](Cc1ccc(O)cc1)NC(C)=O)C(=O)N[C@H](C(=O)N(C)[C@@H](C)C(=O)N[C@@H](CCCNC(=N)N)C(=O)N[C@@H](CCCNC(=N)N)C(=O)N[C@@H](Cc1ccccc1)C(=O)N[C@@H](CC(C)C)C(=O)N[C@@H](CCC(=O)O)C(=O)N[C@@H](CCCCN)C(=O)N[C@@H](Cc1c[nH]c2ccccc12)C(=O)NCC(=O)N[C@@H](CC(C)C)C(=O)N[C@@H](CC(C)C)C(=O)N[C@@H](CCCNC(=N)N)C(N)=O)[C@@H](C)O [compound 64] (Ac-YPMT[NMeA]RRFLEKWGLLR-NH2)	12.5 (≈ 26.2 µg/mL)	400 (≈ 837 µg/mL)	None/400	400 (≈ 837 µg/mL)	400 (≈ 837 µg/mL)	400 µM (≈ 837 µg/mL)	<6.25	–	–	–	–
CSCC[C@H](NC(=O)[C@@H]1CCCN1C(=O)[C@H](Cc1ccc(O)cc1)NC(C)=O)C(=O)N[C@@H](CCO)C(=O)N[C@@H](C)C(=O)N[C@@H](CCCNC(=N)N)C(=O)N[C@@H](CCCNC(=N)N)C(=O)N[C@@H](Cc1ccccc1)C(=O)N[C@@H](CC(C)C)C(=O)N[C@@H](CCC(=O)O)C(=O)N[C@@H](CCCCN)C(=O)N[C@@H](Cc1c[nH]c2ccccc12)C(=O)NCC(=O)N[C@@H](CC(C)C)C(=O)N[C@@H](CC(C)C)C(=O)N[C@@H](CCCNC(=N)N)C(N)=O [compound 63] (Ac-YPM[hSer]ARRFLEKWGLLR-NH2)	–	200 (≈ 416 µg/mL)	200 µM (≈ 416 µg/mL)	200 (≈ 416 µg/mL)	400 (≈ 831 µg/mL)	400/200	<6.25	–	–	–	–
CCCC[C@H](NC(=O)[C@@H]1CCCN1C(=O)[C@H](Cc1ccc(O)cc1)NC(C)=O)C(=O)N[C@H](C(=O)N[C@@H](C)C(=O)N[C@@H](CCCNC(=N)N)C(=O)N[C@@H](CCCNC(=N)N)C(=O)N[C@@H](Cc1ccccc1)C(=O)N[C@@H](CC(C)C)C(=O)N[C@@H](CCC(=O)O)C(=O)N[C@@H](CCCCN)C(=O)N[C@@H](Cc1c[nH]c2ccccc12)C(=O)NCC(=O)N[C@@H](CC(C)C)C(=O)N[C@@H](CC(C)C)C(=O)N[C@@H](CCCNC(=N)N)C(N)=O)[C@@H](C)O [compound 62] (Ac-YP[Nle]TARRFLEKWGLLR-NH2)	–	200 (≈ 412 µg/mL)	200 µM (≈ 412 µg/mL)	200 (≈ 412 µg/mL)	200 (≈ 412 µg/mL)	400 µM (≈ 824 µg/mL)	<6.25	–	–	–	–
CSCC[C@H](NC(=O)[C@@H]1CCCN1C(=O)[C@H](Cc1ccc(O)cc1)NC(C)=O)C(=O)N[C@H](C(=O)N[C@@H](C)C(=O)N[C@@H](CCCNC(=N)N)C(=O)N[C@@H](CCCNC(=N)N)C(=O)N[C@@H](Cc1ccc(-c2ccccc2)cc1)C(=O)N[C@@H](CC(C)C)C(=O)N[C@@H](C)C(=O)N[C@@H](CCCCN)C(=O)N[C@@H](Cc1c[nH]c2ccccc12)C(=O)NCC(=O)N[C@@H](CC(C)C)C(=O)N[C@@H](CC(C)C)C(=O)N[C@@H](CCCNC(=N)N)C(N)=O)[C@@H](C)O [compound 88] (Ac-YPMTARR[Bip]LAKWGLLR-NH2)	–	–	25.0 µM (≈ 52.4 µg/mL)	12.5 (≈ 26.2 µg/mL)	25.0 (≈ 52.4 µg/mL)	100.0 µM (≈ 210 µg/mL)	–	–	–	–	–
CSCC[C@H](NC(=O)[C@@H]1CCCN1C(=O)[C@H](Cc1ccc(O)cc1)NC(C)=O)C(=O)N[C@H](C(=O)NC(C)(C)C(=O)N[C@@H](CCCNC(=N)N)C(=O)N[C@@H](CCCNC(=N)N)C(=O)N[C@@H](Cc1ccccc1)C(=O)N[C@@H](CC(C)C)C(=O)N[C@@H](CCC(=O)O)C(=O)N[C@@H](CCCCN)C(=O)N[C@@H](Cc1c[nH]c2ccccc12)C(=O)NCC(=O)N[C@@H](CC(C)C)C(=O)N[C@@H](CC(C)C)C(=O)N[C@@H](CCCNC(=N)N)C(N)=O)[C@@H](C)O [compound 93] (Ac-YPMT[Aib]RRFLEKWGLLR-NH2)	–	–	400.0 µM (≈ 837 µg/mL)	50.0 (≈ 105 µg/mL)	>400.0	200.0 µM (≈ 419 µg/mL)	–	–	–	–	–
Ac-YPMTFRRFLAKWGLLR-NH2 [compound 87]	–	–	25.0 µM	25.0	50.0	100.0 µM	–	–	–	–	–
CSCC[C@H](NC(=O)[C@@H]1CCCN1C(=O)[C@H](CCCNC(=N)N)NC(C)=O)C(=O)N[C@H](C(=O)N[C@@H](C)C(=O)N[C@@H](CCCNC(=N)N)C(=O)N[C@@H](CCCNC(=N)N)C(=O)N[C@@H](Cc1ccc(-c2ccccc2)cc1)C(=O)N[C@@H](CC(C)C)C(=O)N[C@@H](CCC(=O)O)C(=O)N[C@@H](CCCCN)C(=O)N[C@@H](Cc1c[nH]c2ccccc12)C(=O)NCC(=O)N[C@@H](CC(C)C)C(N)=O)[C@@H](C)O [compound 207] (Ac-RPMTARR[Bip]LEKWGL-NH2)	–	–	100.0 µM (≈ 188 µg/mL)	100.0 (≈ 188 µg/mL)	100.0 (≈ 188 µg/mL)	100.0 µM (≈ 188 µg/mL)	–	–	–	–	–
CC(=O)N[C@@H](Cc1ccc(O)cc1)C(=O)N1CCC[C@H]1C(=O)N[C@@H](CCc1ccccc1)C(=O)N[C@H](C(=O)N[C@@H](C)C(=O)N[C@@H](CCCNC(=N)N)C(=O)N[C@@H](CCCNC(=N)N)C(=O)N[C@@H](Cc1ccccc1)C(=O)N[C@@H](CC(C)C)C(=O)N[C@@H](CCC(=O)O)C(=O)N[C@@H](CCCCN)C(=O)N[C@@H](Cc1c[nH]c2ccccc12)C(=O)NCC(=O)N[C@@H](CC(C)C)C(=O)N[C@@H](CC(C)C)C(=O)N[C@@H](CCCNC(=N)N)C(N)=O)[C@@H](C)O [compound 91] (Ac-YP[hPhe]TARRFLEKWGLLR-NH2)	–	–	>400.0 µM	50.0 (≈ 105 µg/mL)	>400.0	50.0 µM (≈ 105 µg/mL)	–	–	–	–	–
Ac-RPMTFRRFLEKWGL-NH2 [compound 73]	–	–	200 µM	50	800	50 µM	–	–	–	–	–
Ac-YPMTLRRFLEKWGLLR-NH2 [compound 83]	–	–	100.0 µM	50.0	200.0	200.0 µM	–	–	–	–	–
CSCC[C@H](NC(=O)[C@H](CN)NC(=O)[C@H](CCSC)NC(=O)[C@@H]1CCCN1C(=O)[C@H](Cc1ccc(O)cc1)NC(C)=O)C(=O)N[C@@H](CCCNC(=N)N)C(=O)N[C@@H](CCCNC(=N)N)C(=O)N[C@@H](Cc1ccccc1)C(=O)N[C@@H](CC(C)C)C(=O)N[C@@H](CCC(=O)O)C(=O)N[C@@H](CCCCN)C(=O)N[C@@H](Cc1c[nH]c2ccccc12)C(=O)NCC(=O)N[C@@H](CC(C)C)C(=O)N[C@@H](CC(C)C)C(=O)N[C@@H](CCCNC(=N)N)C(N)=O [compound 78] (Ac-YPM[Dap]MRRFLEKWGLLR-NH2)	–	–	25.0 µM (≈ 53.1 µg/mL)	25.0 (≈ 53.1 µg/mL)	100.0 (≈ 212 µg/mL)	12.5 µM (≈ 26.5 µg/mL)	–	–	–	–	–
COC[C@H](NC(=O)[C@@H](NC(=O)[C@H](CCSC)NC(=O)[C@@H]1CCCN1C(=O)[C@H](CCCNC(=N)N)NC(C)=O)[C@@H](C)O)C(=O)N[C@@H](CCCNC(=N)N)C(=O)N[C@@H](CCCNC(=N)N)C(=O)N[C@@H](Cc1c[nH]c2ccccc12)C(=O)N[C@@H](CC(C)C)C(=O)N[C@@H](C)C(=O)N[C@@H](CCCCN)C(=O)N[C@@H](CCCNC(=N)N)C(=O)NCC(=O)N[C@@H](CC(C)C)C(N)=O [compound 215] (Ac-RPMTS(Me)RRWLAKRGL-NH2)	–	–	–	–	–	–	–	>400.0	>400.0	>400.0	200.0 (≈ 357 µg/mL)
